Values quoted from earlier work, collected in patent US8257918B2, “Intelligent nanomedicine integrating diagnosis and therapy” (The Regents of the University of California, priority 2004, dated 2012).

What was measured:
tumor = conditions: comparison with doxorubicin

SMILES	anti-tumor efficiency relative to doxorubicin (tumor)	cumulative doses that engender a substantial risk of cardiotoxicity
COc1cccc2c1C(=O)c1c(O)c3c(c(O)c1C2=O)C[C@@](O)(C(=O)CO)C[C@@H]3O[C@H]1C[C@H](NC(=O)[C@@H](N)CC(C)C)[C@H](O)[C@H](C)O1 [Leu-Dox, N-1-leucyl-doxorubucin]	more efficient anti-tumor agents than doxorubicin	–
COc1cccc2c1C(=O)c1c(O)c3c(c(O)c1C2=O)C[C@@](O)(C(=O)CO)C[C@@H]3O[C@H]1C[C@H](N)[C@H](O)[C@H](C)O1 [doxorubicin]	–	exceed 550 mg/m^2
